In ChEMBL document CHEMBL3045993, “Expedient synthesis of some novel pregnane derivatives and their evaluation as anti-oxidant and anti-dyslipidemic agents” (2011) one finds Activity, inhibition and inhibition in vivo data, which are given here for 13 molecules.

What all share (format): functional
Assay [1] relates to Rattus norvegicus. The assay can be described thus: Antidyslipidemic activity in Rattus norvegicus Charles Foster (rat) assessed as activation of post heparin lipolytic activity at 400 mg/kg, po after 18 hr relative to control.
The next assay has as its system Liver microsome. Kind of assay: Antioxidant activity in Rattus norvegicus (rat) liver microsomes assessed as inhibition of lipid peroxidation at 100 ug/ml after 90 min by thiobarbuteric acid method.
A short description of assay [2]: Antioxidant activity assessed as inhibition of xanthine oxidase-mediated superoxide anion release at 100 ug/ml after 30 min relative to control.
The nature of assay [3]: Antioxidant activity assessed as inhibition of hydroxy radical generation at 100 ug/ml after 90 min by thiobarbuteric acid method.
The test system of assay [4] is Rattus norvegicus. The assay can be described thus: Antidyslipidemic activity in Rattus norvegicus Charles Foster (rat) assessed as inhibition of triton WR1339-induced phospholipid in plasma at 100 mg/kg, po after 18 hr relative to control.
In assay [5] the test system is Rattus norvegicus. Kind of assay: Antidyslipidemic activity in high fat diet fed Rattus norvegicus Charles Foster (rat) assessed as activation of liver phopholipase at 100 mg/kg, po administered QD for 30 days relative to control.
The subject of assay [6] is Rattus norvegicus. Kind of assay: Antidyslipidemic activity in high fat diet fed Rattus norvegicus Charles Foster (rat) assessed as activation of cholesterol acyltransferase in plasma at 100 mg/kg, po administered QD for 30 days relative to control.
In assay [7] the test system is Rattus norvegicus. The assay can be described thus: Antidyslipidemic activity in Rattus norvegicus Charles Foster (rat) assessed as inhibition of triton WR1339-induced triglyceride in plasma at 100 mg/kg, po after 18 hr relative to control.
Assay [8] concerns Rattus norvegicus. The assay can be described thus: Antidyslipidemic activity in Rattus norvegicus Charles Foster (rat) assessed as activation of post heparin lipolytic activity at 100 mg/kg, po after 18 hr relative to control.
The test system of assay [9] is Rattus norvegicus. The assay can be described thus: Antidyslipidemic activity in Rattus norvegicus Charles Foster (rat) assessed as inhibition of triton WR1339-induced total cholesterol in plasma at 100 mg/kg, po after 18 hr relative to control. As to conditions: read-out: INH.
Assay [10] relates to Rattus norvegicus. Kind of assay: Antidyslipidemic activity in high fat diet fed Rattus norvegicus Charles Foster (rat) assessed as inhibition of cholesterol-induced phospholipid level in plasma at 100 mg/kg, po administered QD for 30 days relative to control. As to conditions: 720 h.

Take `C[C@H](O)[C@H]1[C@H](OCCOCCO)C[C@H]2[C@@H]3CC=C4C[C@@H](O)CC[C@]4(C)[C@H]3CC[C@]12C` [3BETA,20BETA-DIHYDROXY-16ALPHA-[2(2-HYDROXYETHOXY)-ETHOXY]-PREGN-5-EN]: the Activity in the assay with Rattus norvegicus [1] turned out to be 17%.

One may read the inhibition as the change of the read-out against control, counted positive when it falls. Regarding `COCCO[C@@H]1C[C@H]2[C@@H]3CC=C4C[C@@H](O)CC[C@]4(C)[C@H]3CC[C@]2(C)[C@H]1[C@H](C)O` [3BETA,20BETA-DIHYDROXY-16ALPHA-(2-METHOXY ETHOXY)-PREGN-5-EN], in the assay with Liver microsome, the inhibition is -10%. In addition, in the assay with Rattus norvegicus [1], the Activity came out at 17%.

Turning to `CC(=O)[C@H]1[C@H](OCCOCCO)C[C@H]2[C@@H]3CC=C4C[C@@H](O)CC[C@]4(C)[C@H]3CC[C@@]21C` [3BETA-HYDROXY-16ALPHA-[2(2-HYDROXY ETHOXY)-ETHOXY]PREGN-5-EN-20-ONE], in the assay on Rattus norvegicus [1], the Activity is recorded as 17%.

As to `C/C(=N\OC(C)C)C1=CC[C@H]2[C@@H]3CC=C4C[C@@H](O)CC[C@]4(C)[C@H]3CC[C@]12C`, the inhibition in assay [2] is -9%. Further, the Activity with Rattus norvegicus [1] was 23%.

Take `CC(=O)OC(C)CO[C@@H]1C[C@H]2[C@@H]3CC=C4C[C@@H](OC(C)=O)CC[C@]4(C)[C@H]3CC[C@]2(C)[C@H]1C(C)=O` (stereo partly drawn) [3BETA-ACETOXY-16ALPHA-(2-ACETOXY PROPOXY)-PREGN-5-EN-20-ONE]: the Activity with Rattus norvegicus [1] was 13%. In [3], the inhibition was -9%.

Take `Cc1ccc(C)c(OCCCC(C)(C)C(=O)O)c1` [GEMFIBROZIL]: the inhibition in vivo at 100 mg/kg with Rattus norvegicus [4] was -34%; in the assay on Rattus norvegicus [7], 36%; in the assay on Rattus norvegicus [9] it was 36%; in the assay on Rattus norvegicus [10] it was -31%. Besides, the Activity with Rattus norvegicus [5] stood at 33%; with Rattus norvegicus [6], 31%; with Rattus norvegicus [8], 32%.

In the case of `COCCO[C@@H]1C[C@H]2[C@@H]3CC=C4C[C@@H](OC(C)=O)CC[C@]4(C)[C@H]3CC[C@]2(C)[C@H]1C(C)=O` [3BETA-ACETOXY-16ALPHA-(2-METHOXY ETHOXY)-PREGN-5-EN-20-ONE], the Activity in the assay on Rattus norvegicus [1] is reported as 18%.

With `CC(=O)[C@H]1[C@H](OCC(C)O)C[C@H]2[C@@H]3CC=C4C[C@@H](O)CC[C@]4(C)[C@H]3CC[C@@]21C` (stereo partly drawn) [3BETA-HYDROXY-16ALPHA-(2-HYDROXY PROPOXY)PREGN-5-EN-20-ONE], the Activity in the assay on Rattus norvegicus [1] is on record as 21%.

For `COCCO[C@@H]1C[C@H]2[C@@H]3CC=C4C[C@@H](O)CC[C@]4(C)[C@H]3CC[C@]2(C)[C@H]1C(C)=O` [3BETA-HYDROXY-16ALPHAA-(2-METHOXYETHOXY)PREGN-5-EN-20-ONE], the Activity in the assay on Rattus norvegicus [1] is recorded as 18%.

Turning to `CC(=O)OCCOCCO[C@@H]1C[C@H]2[C@@H]3CC=C4C[C@@H](OC(C)=O)CC[C@]4(C)[C@H]3CC[C@]2(C)[C@H]1C(C)=O` [3BETA-ACETOXY-16ALPHA-[2(2-ACETOXY ETHOXY)-ETHOXY]-PREGN-5-EN-20-ONE], the Activity in the assay with Rattus norvegicus [5] was 15%; with Rattus norvegicus [6] it was 20%; in the assay on Rattus norvegicus [1], 23%. The inhibition in vivo at 100 mg/kg in the assay on Rattus norvegicus [10] is -22%.

Regarding `CC(=O)[C@H]1[C@H](Nc2ccc(Cl)cc2)C[C@H]2[C@@H]3CC=C4C[C@@H](O)CC[C@]4(C)[C@H]3CC[C@@]21C` [3BETA-HYDROXY-16ALPHA-(4-CHLORO PHENYLAMINO)-PREGN-5-EN-20-ONE], in the assay with Liver microsome, the inhibition was -8%. Moreover, the figures for the Activity in the assay with Rattus norvegicus [5], with Rattus norvegicus [6] and in the assay on Rattus norvegicus [1] were 18%, 23% and 31%, respectively. Besides, the inhibition in vivo at 100 mg/kg in the assay on Rattus norvegicus [10] is -25%.

For the molecule `CC(=O)[C@H]1[C@H](c2cc(F)ccc2N)C[C@H]2[C@@H]3CC=C4C[C@@H](O)CC[C@]4(C)[C@H]3CC[C@@]21C` [3BETA-HYDROXY-16ALPHA-(2-AMINO-5-FLUORO-PHENYL)-PREGN-5-EN-20-ONE], the Activity came to 27% in the assay on Rattus norvegicus [5], 28% in the assay on Rattus norvegicus [6] and 24% in the assay with Rattus norvegicus [1]. In the assay with Rattus norvegicus [10], the inhibition in vivo at 100 mg/kg was -21%.

Regarding `CC(=O)[C@@]1(O)[C@H](OCCO)C[C@H]2[C@@H]3CC=C4C[C@@H](O)CC[C@]4(C)[C@H]3CC[C@@]21C` [3BETA,17ALPHA-DIHYDROXY-16ALPHA-(2-HYDROXY ETHOXY)PREGN-5-EN-20-ONE], the Activity with Rattus norvegicus [1] is listed as 21%.
